Holding throughout (assay type): cell-based
Experiment [1] has as its system PC-3 cells. The experiment is described as follows: Cell proliferation assay (CellTiter Glo), PC-3. Particulars: Homo sapiens, PC-3, 168 h, read-out: PC-3 IC50. As to the method:
(§1) IC50 values were calculated and graphed using the model “log(inhibitor) vs. response—Variable slope” included in GraphPad Prism 5 (San Diego, CA). The Ki values were further calculated using the equation below where [L] was the radioligand concentration (1 nM) using in this study. Kd value was 0.332 nM. Ki=IC50/(1+[L]/Kd) c. AR transactivation: Human AR cloned into a CMV vector backbone was used for the transactivation study. HEK-293 cells were plated at 80,000 cells per well of a 24 well plate in DME+5% csFBS. Twenty four hours later, the cells were transfected using Lipofectamine (Invitrogen, Carlsbad, CA) with 0.25 μg GRE-LUC, 0.01 μg CMV-LUC (renilla luciferase) and 25 ng of the AR in OPTIMEM medium. The cells were treated 24 hrs after transfection with various ligands (10^−12 to 10^−5 M final concentrations) and luciferase assay were performed 48 hours after transfection. Firefly values were normalized to renilla luciferase values and the values were represented as relative light units (RLU). Agonist and antagonist assays for the test article were performed in the absence and in the combination with 0.1 nM R1881, respectively. Data were represented as EC50 (for agonists) and IC50 (for antagonists) obtained from four parameter logistics curve. Cell culture and proliferation assays: LNCaP, PC-3, 22RV1, MCF-7, HT-29, and HCT-116 cells were procured from American Type Culture Collection (ATCC). Cells were cultured in medium recommended by the ATCC. Cell culture medium was obtained from Fisher scientific (Waltham, MA) and serum was obtained from Hyclone (San Angelo, TX).
(§2) Cells were plated at varying density in the respective growth medium in 96 well plates. 24 hr later, cells were treated, in triplicate or quadruplicate, with test articles prepared in a range of concentrations by series dilution of DMSO stock solutions in growth medium and incubated for three to seven days. The number of viable 22RV1 and HT-29 cells was measured using CellTiter Glo assay (CTG, Promega, Madison, WI) after three days of treatment. The other types of cancer cells were re-treated at three or four days and the number of viable cells was measured using CTG assay after a total treatment time of six or seven days. Cell viability data were plotted using GraphPad Prism (GraphPad Software, Inc., San Diego, CA). In addition, a nonlinear regression model with a sigmoidal dose response and variable slope within GraphPad Prism was used to calculate the IC50 value of individual test articles. Additional cell proliferation assays: Other cancer cell lines are tested in a cell proliferation assay. For example, SK-OV-3 or OVCAR3 ovarian cancer cells are tested. […] The number of viable cells is measured using CellTiter Glo assay (CTG, Promega, Madison, WI) or similar. […]
On the technique in general: Cellular ATP, detected with luciferase, serves as a proxy for viable cell number.

For experiment [2], the system named is LNCaP cells. The experiment in a line: Cell proliferation assay (CellTiter Glo), LNCaP. As to conditions: Homo sapiens, 168 h, read-out: LNCaP IC50. As to the method:
as §1
Cells were plated at varying density in the respective growth medium in 96 well plates. 24 hr later, cells were treated, in triplicate or quadruplicate, with test articles prepared in a range of concentrations by series dilution of DMSO stock solutions in growth medium and incubated for three to seven days. The number of viable 22RV1 and HT-29 cells was measured using CellTiter Glo assay (CTG, Promega, Madison, WI) after three days of treatment. The other types of cancer cells were re-treated at three or four days and the number of viable cells was measured using CTG assay after a total treatment time of six or seven days. Cell viability data were plotted using GraphPad Prism (GraphPad Software, Inc., San Diego, CA). In addition, a nonlinear regression model with a sigmoidal dose response and variable slope within GraphPad Prism was used to calculate the IC50 value of individual test articles. Additional cell proliferation assays: Other cancer cell lines are tested in a cell proliferation assay. For example, SK-OV-3 or OVCAR3 ovarian cancer cells are tested. Cells are cultured in medium recommended by the supplier (e.g., ATCC or JCRB Cell Bank), at 37° C. in a 5% CO2 environment. For the proliferation assay, cells are plated in the growth medium in 96 well plates. Seeding density is adjusted according to the cell type. 24 hr later, cells are treated, in triplicate or quadruplicate, with test articles prepared in a range of concentrations by series dilution of DMSO stock solutions in growth medium, and typically incubated for three to seven days, with test article-containing medium replaced after three or four days. The number of viable cells is measured using CellTiter Glo assay (CTG, Promega, Madison, WI) or similar. Cell viability data are plotted using GraphPad Prism (GraphPad Software, Inc., San Diego, CA). […]

Experiment [3] deals with HCT-116 cells. The experiment in a line: Cell proliferation assay (CellTiter Glo), HCT-116. Particulars: Homo sapiens, HCT-116, 168 h, read-out: HCT-116 IC50. As to the method:
as §1, §2

Each structure is given as a SMILES string. pIC50: −log10 of the molar value.

Data on 2 molecules can be found in patent US12398121B2 (Nuvation Bio Inc., priority 2018, dated 2025).

For `C[C@]12CCC(=O)C[C@@H]1CC[C@@H]1[C@@H]2CC[C@]2(C)[C@@H](OCCCCCC(=O)N3CCN(C(=O)c4cc(Cc5n[nH]c(=O)c6ccccc56)ccc4F)CC3)CC[C@@H]12` [Compound 1.2, 4-(3-(4-(6-(((5S,8R,9S,10S,13S,14S,17S)-10,13-dimethyl-3-oxohexadecahydro-1H-cyclopenta[a]phenanthren-17-yl)oxy)hexanoyl)piperazine-1-carbonyl)-4-fluorobenzyl)phthalazin-1(2H)-one], the negative logarithm of the IC50 (pIC50) was 6.62 in experiment [1], 6.10 in experiment [2] and 6.96 in experiment [3].

Consider `CC1(C)C(=O)N(c2ccc(C#N)c(C(F)(F)F)c2)C(=S)N1c1ccc(C(=O)NCCCCCC(=O)N2CCN(C(=O)c3cc(Cc4n[nH]c(=O)c5ccccc45)ccc3F)CC2)c(F)c1` [Compound 1.1, 4-(3-(4-cyano-3-(trifluoromethyl)phenyl)-5,5-dimethyl-4-oxo-2-thioxoimidazolidin-1-yl)-2-fluoro-N-(6-(4-(2-fluoro-5-((4-oxo-3,4-dihydrophthalazin-1-yl)methyl)benzoyl)piperazin-1-yl)-6-oxohexyl)benzamide], for which the pIC50 in experiment [1] is 7.30; in experiment [2], 6.23; in experiment [3] it was 6.51.

As a reminder, the pIC50 is −log10 of the IC50, conventionally taken in molar units.
